This is an account of results in BindingDB's records for PubMed 33077264 (Menoufia University, 2021).

Molecules are shown by their SMILES.

In the assay the target is Lysine-specific histone demethylase 1A (Homo sapiens, UniProt O60341). In words: Inhibition of N-terminal GST tagged LSD1 (residues 171 - 852) (unknown origin) overexpressed in Escherichia coli using ARTK(Me)2QTARKSTGGKAPRKQLAas substrate incubated for 20 mins by spectrophotometric analysis.

The term IC50 denotes the concentration that inhibits the measured activity by half. `Nc1ccccc1NC(=O)c1ccc(CCCC(=O)Nc2ccc(C3CC3N)cc2)cc1` (stereo unspecified) yielded an IC50 of 330 nM.
